Results from PubChem BioAssay AID1199 (EPA DSSTox, 2008).
Calls of active or inactive are those of the source.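 The calls were made as follows: active = a tumour-causing dose and a tumour site recorded for mice in at least one sex group; inconclusive = only government mouse studies exist and were judged inadequate; inactive = mouse studies exist but none gave tumours.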

Test system: mouse carcinogenicity bioassay, TD50 from CPDB
Assay: DSSTox (CPDBAS) Carcinogenic Potency Database Summary Mouse Bioassay Results
In short: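 Chronic long-term mouse cancer bioassays from literature and NCI/NTP, compiled per sex. TD50 is the standardized carcinogenic potency, using the most positive experiment per sex-species; target sites follow author opinion.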

[1] = TD50_Mouse_Note: TD50 is harmonic mean of more than one positive test, TargetSites_Mouse_Female: liver
[2] = TD50_Mouse_Note: TD50 is harmonic mean of more than one positive test, TargetSites_Mouse_Female: liver, lung
[3] = TD50_Mouse_Note: TD50 is harmonic mean of more than one positive test, harmonic mean of TD50 includes a value for upper 99% confidence li, TargetSites_Mouse_Female: liver
[4] = TD50_Mouse_Note: TD50 is harmonic mean of more than one positive test, TargetSites_Mouse_Female: liver, vascular system
[5] = TD50_Mouse_Note: TD50 is harmonic mean of more than one positive test, TargetSites_Mouse_Female: no positive results
[6] = TD50_Mouse_Note: no positive results, TargetSites_Mouse_Female: no positive results
[7] = TargetSites_Mouse_Female: no positive results
[8] = TD50_Mouse_Note: no positive results
[9] = TD50_Mouse_Note: TD50 is harmonic mean of more than one positive test, TargetSites_Mouse_Female: stomach

ClC1C(Cl)C(Cl)C(Cl)C(Cl)C1Cl (stereo unspecified)
Potency [1]: 0.0956 mmol/kg/day
Potency [2]: 0.106 mmol/kg/day
Potency [3]: 0.0509 mmol/kg/day
Potency (TD50_Mouse_Note: TD50 value is overestimated as upper 99% confidence limit from study with 100% tumor incidence but no lifetable, harmoni): 0.0228 mmol/kg/day

Nc1ccc2nc3ccccn3c2n1
Potency [4]: 0.0869 mmol/kg/day

[CH3][Hg][Cl]
Potency [5]: 0.00578 mmol/kg/day

CNc1ccc(N(CCO)CCO)cc1[N+](=O)[O-]
Potency [1]: 0.308 mmol/kg/day
Potency [3]: 0.338 mmol/kg/day

c1ccc2n[nH]nc2c1
outcome [6]: inactive; no positive results

Cn1c(N)nc2ncc(-c3ccccc3)cc21
Potency (TD50_Mouse_Note: TD50 is harmonic mean of more than one positive test, TargetSites_Mouse_Female: hematopoietic system): 0.127 mmol/kg/day

CN(C)C(=S)[S-].CN(C)C(=S)[S-].[Cu+2]
outcome [6]: inactive; no positive results

CCCC(Cl)CCC(Cl)CCC(Cl)CCC(Cl)CCC(Cl)CCC(Cl)CCC(C)Cl (stereo unspecified)
Potency [7]: 11.6 mmol/kg/day

CC#N
outcome [6]: inactive; no positive results

CC(=O)Oc1ccccc1C(=O)O
outcome [6]: inactive; no positive results

O=[N+]([O-])c1ccc(Cl)cc1
Potency (TD50_Mouse_Note: TD50 is harmonic mean of more than one positive test, TargetSites_Mouse_Female: vascular system): 3 mmol/kg/day

CC/C=C(/CC)[N+](=O)[O-]
Potency (TargetSites_Mouse_BothSexes: lung): 0.00268 mmol/kg/day

Oc1cccc(O)c1
outcome [6]: inactive; no positive results

CC(C)Oc1ccc(Nc2ccccc2)cc1
outcome [6]: inactive; no positive results

CCN(CC)C(=S)SSC(=S)N(CC)CC
outcome [6]: inactive; no positive results

N[C@@H](CCC(=O)O)C(=O)O
outcome [8]: inactive; no positive results

C=C(C)C
outcome [6]: inactive; no positive results

Oc1ccc(-c2ccccc2)cc1
outcome [6]: inactive; no positive results

Cc1cccn2c1nc1ccc(N)nc12
Potency [4]: 0.0272 mmol/kg/day

CN(N=O)C(=O)N[C@@H]1[C@@H](O)[C@H](O)[C@@H](CO)O[C@@H]1O
Potency (TD50_Mouse_Note: positive test results only by intraperitoneal or intravenous injection, TD50 is harmonic mean of more than one positive, TargetSites_Mouse_Female: kidney, lung): 0.00103 mmol/kg/day

C=Cc1ccccc1
Potency (TD50_Mouse_Note: TD50 is harmonic mean of more than one positive test, TargetSites_Mouse_Female: lung): 2.02 mmol/kg/day

Cc1cc(=O)[nH]c(=S)[nH]1
outcome (TargetSites_Mouse_BothSexes: no positive results): inactive

O=C(O)CN(CCN(CC(=O)O)CC(=O)O)CC(=O)O
outcome [6]: inactive; no positive results

CC1CO1 (stereo unspecified)
Potency (TD50_Mouse_Note: TD50 is harmonic mean of more than one positive test, TargetSites_Mouse_Female: nasal cavity): 15.7 mmol/kg/day

CSCCC(N)C(=O)O (stereo unspecified)
outcome [8]: inactive; no positive results

O.O.O.O.O.O.O.O.O=S(=O)([O-])[O-].O=S(=O)([O-])[O-].O=S(=O)([O-])[O-].[Cd+2].[Cd+2].[Cd+2]
outcome [8]: inactive; no positive results

Nc1cc([N+](=O)[O-])ccc1O
outcome [6]: inactive; no positive results

O=c1[nH]cc(F)c(=O)[nH]1
Potency (TD50_Mouse_Note: TD50 is harmonic mean of more than one positive test, TargetSites_Mouse_Female: hematopoietic system, lung): 0.0228 mmol/kg/day

CCOP(=S)(OCC)Oc1ccc2c(C)c(Cl)c(=O)oc2c1
outcome [6]: inactive; no positive results

CCCC[C@H](C)[C@@H](OC(=O)C[C@H](CC(=O)O)C(=O)O)[C@@H](C[C@H](C)C[C@@H](O)CCCC[C@@H](O)C[C@H](O)[C@H](C)N)OC(=O)C[C@H](CC(=O)O)C(=O)O
Potency (TargetSites_Mouse_Female: liver): 0.00941 mmol/kg/day

O=C1CCO1
Potency [9]: 0.0172 mmol/kg/day

c1ccc(C2CO2)cc1 (stereo unspecified)
Potency [9]: 0.982 mmol/kg/day

OC[C@@H](O)[C@H]1O[C@@H]2O[C@H](C(Cl)(Cl)Cl)O[C@@H]2[C@H]1O
outcome [6]: inactive; no positive results

CCO
outcome [6]: inactive; no positive results

Cc1cc(N)ccc1N
outcome [6]: inactive; no positive results

ClCCl
Potency [2]: 13 mmol/kg/day

Nc1ncc([N+](=O)[O-])s1
outcome [6]: inactive; no positive results

Nc1ccc(NCCO)c([N+](=O)[O-])c1
outcome (TD50_Mouse_Note: no positive results, TargetSites_Mouse_Female: NTP bioassay inadequate): inactive; no positive results

O=[N+]([O-])c1ccc(-c2cnc3ccccn23)o1
Potency (TD50_Mouse_Note: TD50 is harmonic mean of more than one positive test, TargetSites_Mouse_Female: esophagus, stomach): 0.118 mmol/kg/day

O=Nc1ccc(Nc2ccccc2)cc1
Potency [7]: 1.72 mmol/kg/day

O=P(O)(O)O
outcome [6]: inactive; no positive results

CC(=O)Nc1ccc(S(=O)(=O)O)c2cc(S(=O)(=O)O)c(N=Nc3ccc(N=Nc4ccc(S(=O)(=O)O)cc4)c4ccc(S(=O)(=O)O)cc34)c(O)c12
outcome [6]: inactive; no positive results

CCCCOCCOCCOCc1cc2c(cc1CCC)OCO2
Potency [1]: 0.86 mmol/kg/day
outcome [6]: inactive; no positive results

COc1ccc(O)c(C(C)(C)C)c1
Potency (TD50_Mouse_Note: TD50 is harmonic mean of more than one positive test, no positive results are statistically significant, TargetSites_Mouse_Female: no positive results): 30.7 mmol/kg/day

CC(C)N(C(=O)SC/C(Cl)=C/Cl)C(C)C
Potency [5]: 0.0988 mmol/kg/day

OC[C@H]1O[C@H](O[C@]2(CCl)O[C@H](CCl)[C@@H](O)[C@@H]2O)[C@H](O)[C@@H](O)[C@H]1Cl
outcome [6]: inactive; no positive results
